# How the values were obtained:
# Assay in all cases: absorption spectrum of purified protein
# Type in all cases: binding
# Details in all cases: covalent (protonated Schiff base); 1 M NaCl, 0.05% DDM, pH 7.0
# [1] = target: T1, GR (Gloeobacter violaceus, UniProt Q7NP59)
# T1 construct: gene gll0198
# T1 sequence (Q7NP59 1-298): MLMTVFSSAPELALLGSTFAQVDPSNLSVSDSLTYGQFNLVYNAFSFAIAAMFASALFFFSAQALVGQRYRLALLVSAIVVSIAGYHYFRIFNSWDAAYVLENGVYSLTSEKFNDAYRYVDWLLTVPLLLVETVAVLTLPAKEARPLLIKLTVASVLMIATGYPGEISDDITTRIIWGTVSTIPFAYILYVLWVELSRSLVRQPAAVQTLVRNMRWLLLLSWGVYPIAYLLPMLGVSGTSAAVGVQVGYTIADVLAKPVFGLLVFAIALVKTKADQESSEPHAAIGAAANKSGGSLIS
# [2] = target: T2, AR3 (archaerhodopsin-3) (Halorubrum sodomense, UniProt P96787, M128A/G132A/S151G/A225T)
# T2 construct: gene aop3
# T2 sequence (P96787 7-258 M128A/G132A/S151G/A225T): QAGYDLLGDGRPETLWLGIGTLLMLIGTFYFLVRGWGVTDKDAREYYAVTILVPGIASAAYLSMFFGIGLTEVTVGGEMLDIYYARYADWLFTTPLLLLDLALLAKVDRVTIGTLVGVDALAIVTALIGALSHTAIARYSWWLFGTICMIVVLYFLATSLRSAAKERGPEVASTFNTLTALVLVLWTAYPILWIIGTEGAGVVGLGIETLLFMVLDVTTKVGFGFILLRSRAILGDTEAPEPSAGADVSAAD
# [3] = target: T3, HwBR (Haloquadratum walsbyi, UniProt Q18DH8)
# T3 construct: gene bop1
# T3 sequence (Q18DH8 7-254): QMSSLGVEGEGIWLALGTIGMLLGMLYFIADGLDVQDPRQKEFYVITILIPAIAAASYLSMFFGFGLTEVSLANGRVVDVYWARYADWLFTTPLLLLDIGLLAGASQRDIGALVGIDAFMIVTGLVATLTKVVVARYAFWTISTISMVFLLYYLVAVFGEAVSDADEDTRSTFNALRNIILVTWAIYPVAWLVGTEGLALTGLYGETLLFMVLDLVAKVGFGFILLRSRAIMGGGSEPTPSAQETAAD
smiles,measurement,setting,value
CC1=C(/C=C/C(C)=C/C=C/C(C)=C/C=O)C(C)(C)CCC1 [all-trans retinal],absorption spectrum of purified protein,[1],Absorption spectra of wild-type and colour variants of HwBR (a) and GR (b)
same,absorption spectrum of purified protein,[2],The M128A/G132A/S151G/A225T and M128A/S151A/A225T mutants slightly reduced the shifts
same,absorption spectrum of purified protein,[3],Absorption spectra of wild-type and colour variants of HwBR (a) and GR (b)
